Laboratory results taken from ChEMBL document CHEMBL6114947, “Navigating cancer therapy: Harnessing the power of peptide-drug conjugates as precision delivery vehicles” (Eur J Med Chem, 2025).

Experiments:
PANC-1 = assay: Antitumor activity against human PANC-1 cells xenografted in BALB/c mouse assessed as reduction in tumor volume at 2 mg/kg, iv administered once every 2 days and measured on day 74 relative to control; type: functional; design: scale not given: the % may be the effect or the level left; settings: time 74 day
[1] = Half life in BALB/c mouse plasma at 5 mg/kg, iv by LC-MS/MS analysis

## COc1cccc2c1C(=O)c1c(O)c3c(c(O)c1C2=O)C[C@@](O)(C(C)=O)C[C@@H]3O[C@H]1C[C@H](N)[C@H](O)[C@H](C)O1 [DAUNORUBICIN]
PANC-1
  Activity: 32.2%

## COc1cccc2c1C(=O)c1c(O)c3c(c(O)c1C2=O)C[C@@](O)(C(=O)CO)C[C@@H]3O[C@H]1C[C@H](N)[C@H](O)[C@H](C)O1 [DOXORUBICIN]
[1]
  half-life: 29.4 h
